Values after ≈ are worked out from the molar mass of the structure shown.
How the values were obtained:
Type in all cases: cell-based
[1] = test system: C. pylori CLO 1; experiment: MIC, agar-plate dilution method, test strain F; details: Helicobacter pylori, CLO1, 72 h, Brucella agar, 37° C., 3 days
Method: (§1) The minimum inhibitory concentration (MIC) of each compound was determined by the agar-plate dilution method based on the standard method advocated by Japan Society of Chemotherapy [cf: Chemotherapy, Jan. '81, p. 76]. The volume of agar medium per plate was 20 ml. Each of the test compounds was dissolved in dimethylsulfoxide at a concentration of 80 mg/ml or 40 mg/ml, and diluted 10 times with sterile distilled water. Furthermore, the aqueous solution of 8 mg/ml or 4 mg/ml was diluted serially 2-fold with sterile distilled water. To 2 ml of the diluted solution was added 18 ml of Brucella agar (BBL Microbiology Systems, Becton Dickinson and Co., Cockeysville, Md. 21030) containing 7% defibrinated horse blood (manufactured by Nippon Bio-supp. Center) and mixed well. Test strains frozen at -80° C. in Brucella broth (BBL) containing 10% horse serum were thawed and inoculated on a Brucella agar slant medium containing 7% defibrinated horse blood. The medium was incubated anaerobically at 37° C. for 3 days in a jar containing a piece of sponge sufficiently impregnated with water and Campy Pak™ (BBL). The organisms grown on the slant medium were collected and suspended in a Brucella broth to correspond to the turbidity of about 10^8 CFU/ml of common bacteria. One platinum loop of inoculum was streaked on the medium plates for determination. The plates were incubated under the same conditions as described above.

[2] = test system: C. pylori NCTC 11916; experiment: MIC, agar-plate dilution method, test strain A; details: Helicobacter pylori, NCTC11916, 72 h, Brucella agar, 37° C., 3 days
Method: as §1

[3] = test system: C. pylori CLO 6; experiment: MIC, agar-plate dilution method, test strain G; details: Helicobacter pylori, CLO6, 72 h, Brucella agar, 37° C., 3 days
Method: as §1

[4] = test system: A. calcoaceticus IFO 13006; experiment: MIC, standard agar-plate dilution method, aerobic common bacteria; details: Acinetobacter calcoaceticus, IFO13006
From the text: (§2) Antibacterial activities of some compounds of the present invention against aerobic common bacteria were examined.

[5] = test system: S. pyogenes S-8; experiment: as above; details: Streptococcus pyogenes, S8
From the text: as §2

[6] = test system: P. aeruginosa U 31; experiment: as above; details: Pseudomonas aeruginosa, U31
From the text: as §2

[7] = test system: S. pneumoniae Type 1; experiment: as above; details: Streptococcus pneumoniae, TYPE1
From the text: as §2

[8] = test system: S. mitis America; experiment: as above; details: Streptococcus mitis
From the text: as §2

[9] = test system: E. coli T 7; experiment: as above; details: Escherichia coli, T7
From the text: as §2

[10] = test system: C. freundii TN 474; experiment: as above; details: Citrobacter freundii, TN474
From the text: as §2

[11] = test system: P. vulgaris IFO 3988; experiment: as above; details: Proteus vulgaris, IFO3988
From the text: as §2

[12] = test system: S. faecium IFO 3128; experiment: as above; details: Enterococcus faecium, IFO3128
From the text: as §2

[13] = test system: K. oxytoca TN 1711; experiment: as above; details: Klebsiella oxytoca, TN1711
From the text: as §2

[14] = test system: S. aureus 1840; experiment: as above; details: Staphylococcus aureus
From the text: as §2

[15] = test system: S. aureus C 260; experiment: as above; details: Staphylococcus aureus, C260
From the text: as §2

[16] = test system: S. aureus P 114; experiment: as above; details: Staphylococcus aureus, P114
From the text: as §2

[17] = test system: E. cloacae TN 583; experiment: as above; details: Enterobacter cloacae, TN583
From the text: as §2

[18] = test system: E. coli NIHJ JC-2; experiment: as above; details: Escherichia coli, NIHJJC2
From the text: as §2

[19] = test system: S. aureus FDA 209P; experiment: as above; details: Staphylococcus aureus, FDA209P
From the text: as §2

[20] = test system: P. aeruginosa B 184; experiment: as above; details: Pseudomonas aeruginosa, B184
From the text: as §2

[21] = test system: S. pyogenes E-14; experiment: as above; details: Streptococcus pyogenes, E14
From the text: as §2

[22] = test system: M. morganii IFO 3168; experiment: as above; details: Morganella morganii, IFO3168
From the text: as §2

[23] = test system: S. marcecens B 315; experiment: as above
From the text: as §2

[24] = test system: S. marcecens IFO 12648; experiment: as above
From the text: as §2

[25] = test system: C. diphtheriae Tront; experiment: as above; details: Corynebacterium diphtheriae
From the text: as §2

[26] = test system: K. pneumoniae DT; experiment: as above; details: Klebsiella pneumoniae
From the text: as §2

[27] = test system: P. aeruginosa P 9; experiment: as above; details: Pseudomonas aeruginosa, P9
From the text: as §2

[28] = test system: S. aureus J-108; experiment: as above; details: Staphylococcus aureus, J108
From the text: as §2

[29] = test system: E. coli 0-111; experiment: as above; details: Escherichia coli, 0111
From the text: as §2

[30] = test system: P. aeruginosa IFO 3455; experiment: as above; details: Pseudomonas aeruginosa, IFO3455
From the text: as §2

[31] = test system: E. cloacae IFO 12937; experiment: as above; details: Enterobacter cloacae, IFO12937
From the text: as §2

[32] = test system: C. freundii IFO 12681; experiment: as above; details: Citrobacter freundii, IFO12681
From the text: as §2

[33] = test system: P. aeruginosa GN 3407; experiment: as above; details: Pseudomonas aeruginosa, GN3407
From the text: as §2

[34] = test system: S. aureus 308 A-1; experiment: as above; details: Staphylococcus aureus, 308A1
From the text: as §2

[35] = test system: S. aureus N-241; experiment: as above; details: Staphylococcus aureus, N241
From the text: as §2

[36] = test system: C. pylori CPY 00111; experiment: MIC, agar-plate dilution method, test strain D; details: Helicobacter pylori, CPY00111, 72 h, Brucella agar, 37° C., 3 days
Method: as §1

Compound `COc1ccc2[nH]c([S+]([O-])Cc3ncc(C)c(OC)c3C)nc2c1` (stereo not drawn) [Compound 2] has an MIC [1] of 25 µg/mL (≈ 72.4 µM), an MIC [2] of 25 µg/mL (≈ 72.4 µM) and an MIC [3] of 12.5 µg/mL (≈ 36.2 µM). For the same compound, the MIC [4] was > 400 µg/mL, the MIC [5] was > 400 µg/mL and the MIC [6] was > 400 µg/mL. For the same compound, the MIC [7] was > 400 µg/mL, the MIC [8] was > 400 µg/mL and the MIC [9] was 40 µg/mL (≈ 116 µM). For the same compound, the MIC [10] was > 400 µg/mL, the MIC [11] was > 400 µg/mL and the MIC [12] was > 400 µg/mL. The MIC [13] was > 400 µg/mL, the MIC [14] was > 400 µg/mL and the MIC [15] was > 400 µg/mL. The MIC [16] was > 400 µg/mL, the MIC [17] was > 400 µg/mL and the MIC [18] was > 400 µg/mL. The MIC [19] was > 400 µg/mL, the MIC [20] was > 400 µg/mL and the MIC [21] was > 400 µg/mL. For the same compound, the MIC [22] was > 400 µg/mL, the MIC [23] was > 400 µg/mL and the MIC [24] was > 400 µg/mL. For the same compound, the MIC [25] was > 400 µg/mL, the MIC [26] was > 400 µg/mL and the MIC [27] was > 400 µg/mL. The MIC [28] was > 400 µg/mL, the MIC [29] was > 400 µg/mL and the MIC [30] was > 400 µg/mL. For the same compound, the MIC [31] was > 400 µg/mL, the MIC [32] was > 400 µg/mL and the MIC [33] was > 400 µg/mL. For the same compound, the MIC [34] was > 400 µg/mL, the MIC [35] was > 400 µg/mL and the MIC [36] was 12.5 µg/mL (≈ 36.2 µM).
`Cc1c(OCC(F)(F)F)ccnc1C[S+]([O-])c1nc2ccccc2[nH]1` (stereo not drawn) [Compound 1] was tested, and the MIC [1] was 6.25 µg/mL (≈ 16.9 µM), the MIC [2] was 12.5 µg/mL (≈ 33.8 µM) and the MIC [3] was 3.13 µg/mL (≈ 8.47 µM). For the same compound, the MIC [4] was > 400 µg/mL, the MIC [5] was > 400 µg/mL and the MIC [6] was > 400 µg/mL. For the same compound, the MIC [7] was > 400 µg/mL, the MIC [8] was > 400 µg/mL and the MIC [9] was > 400 µg/mL. For the same compound, the MIC [10] was > 400 µg/mL, the MIC [11] was > 400 µg/mL and the MIC [12] was > 400 µg/mL. For the same compound, the MIC [13] was > 400 µg/mL, the MIC [14] was > 400 µg/mL and the MIC [15] was > 400 µg/mL. The MIC [16] was > 400 µg/mL, the MIC [17] was > 400 µg/mL and the MIC [18] was > 400 µg/mL. The MIC [19] was > 400 µg/mL, the MIC [20] was > 400 µg/mL and the MIC [21] was > 400 µg/mL. The MIC [22] was > 400 µg/mL, the MIC [23] was > 400 µg/mL and the MIC [24] was > 400 µg/mL. The MIC [25] was > 400 µg/mL, the MIC [26] was > 400 µg/mL and the MIC [27] was > 400 µg/mL. The MIC [28] was > 400 µg/mL, the MIC [29] was > 400 µg/mL and the MIC [30] was > 400 µg/mL. The MIC [31] was > 400 µg/mL, the MIC [32] was > 400 µg/mL and the MIC [33] was > 400 µg/mL. The MIC [34] was > 400 µg/mL, the MIC [35] was > 400 µg/mL and the MIC [36] was 6.25 µg/mL (≈ 16.9 µM).
`Cc1c(OCC(F)(F)F)ccnc1CSc1nc2ccccc2[nH]1` [Compound 6] was tested, and the MIC [1] was 25 µg/mL (≈ 70.7 µM), the MIC [2] was 6.25 µg/mL (≈ 17.7 µM) and the MIC [3] was 6.25 µg/mL (≈ 17.7 µM). For the same compound, the MIC [4] was > 400 µg/mL, the MIC [5] was > 400 µg/mL and the MIC [6] was > 400 µg/mL. The MIC [7] was > 400 µg/mL, the MIC [8] was > 400 µg/mL and the MIC [9] was > 400 µg/mL. For the same compound, the MIC [10] was > 400 µg/mL, the MIC [11] was > 400 µg/mL and the MIC [12] was > 400 µg/mL. For the same compound, the MIC [13] was > 400 µg/mL, the MIC [14] was > 400 µg/mL and the MIC [15] was > 400 µg/mL. For the same compound, the MIC [16] was > 400 µg/mL, the MIC [17] was > 400 µg/mL and the MIC [18] was > 400 µg/mL. For the same compound, the MIC [19] was > 400 µg/mL, the MIC [20] was > 400 µg/mL and the MIC [21] was > 400 µg/mL. The MIC [22] was > 400 µg/mL, the MIC [23] was > 400 µg/mL and the MIC [24] was > 400 µg/mL. For the same compound, the MIC [25] was > 400 µg/mL, the MIC [26] was > 400 µg/mL and the MIC [27] was > 400 µg/mL. The MIC [28] was > 400 µg/mL, the MIC [29] was 40 µg/mL (≈ 113 µM) and the MIC [30] was > 400 µg/mL. The MIC [31] was > 400 µg/mL, the MIC [32] was > 400 µg/mL and the MIC [33] was > 400 µg/mL. The MIC [34] was > 400 µg/mL, the MIC [35] was > 400 µg/mL and the MIC [36] was 3.13 µg/mL (≈ 8.86 µM).

— patent US5013743A, “Selective antibacterial agent against campytobacter” (Takeda Chemical Industries, Ltd., priority 1989, dated 1991)
